Legend:
WIL-FL* [1] = target: T1, WIL-FL* (Homo sapiens, UniProt P01721, K101C, form not given); experiment: Protease-coupled fluorescence polarization (PCFP) assay with proteinase K; details: for EC50: from dose response curves measured during the screening process
WIL-FL* [2] = experiment: FP artefact counterscreen (compounds added after 24 h of proteinase K treatment); format: biochemical, human; set-up: concentration or dose not given beside the values; details: compound added after 24 h PK treatment; mean ± sd, n=3
Method: Secondly, to remove compounds that interfere with the FP measurement, the primary screen was repeated in triplicate but compounds were added after 24 h of proteinase K treatment (FIG. 1f). […] Bona fide hits should retain no FP beyond the low control.

WIL-FL* [3] = target: T1, WIL-FL*; experiment: PCFP assay with thermolysin; details: mean ± sd, n=3; 6.75 μM compound
Method: Thirdly, to remove molecules that inhibit proteinase K, the assay was repeated in triplicate using 100 nM thermolysin (Thermo). […] The additional metal ions were added to bind to ion-chelating small molecules and prevent them from inhibiting the metalloproteinase.
To identify and exclude molecules that interfered with FP measurements, the assay was repeated, but candidate stabilizers were not added until after 24 h of PK treatment (FIG. 1f). […] Thermolysin is a broad-spectrum metalloprotease that is likely not inhibited by compounds that inhibit PK, a serine protease.

WIL-FL [4] = target: T2, WIL-FL (Homo sapiens, UniProt P01721); experiment: PK proteolysis of unlabeled WIL-FL by SDS-PAGE; details: WIL-FL 10 μM, small molecule 100 μM, t=2 h
Method: The experiment in FIG. 1b measured simultaneous proteolysis of labeled and unlabeled LC by adding 20 nM WIL-FL* or JTO-FL* to 5 μM WIL-FL or JTO-FL, respectively. Fluorescein fluorescence images of the SDS-PAGE gels were recorded, after which the gels were Coomassie stained and imaged.

WIL-FL [5] = target: T2, WIL-FL; experiment: Unlabeled LC Protease Sensitivity Assay (proteinase K); format: biochemical; details: small molecule 10 μM, WIL-FL 5 μM, proteinase K 50 nM, 2 hours at 37° C.
Method in brief: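 WIL-FL light chain (5 μM) in PBS pH 7.4 + 0.02% Pluronic F-127 digested with proteinase K (50 nM) for 2 h at 37 °C with 10 μM compound (1% DMSO). Intact WIL-FL quantified by size-exclusion UPLC (A280). Fold protection = (A_compound−A_vehicle)/(A_no_protease−A_vehicle) from peak areas.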

[6] = secondary screen, mean ± sd, n=3, 6.75 μM compound, FP retention after 24 h at 22° C., normalized to high and low controls
[7] = Primary screen, n=1, 6.75 μM compound

Structure (SMILES)	EC50 (WIL-FL* [1]) [µM]	PK activity (%) (WIL-FL* [1]; [6])	Counterscreen activity (%) (WIL-FL* [2])	Thermolysin activity (%) (WIL-FL* [3])	Protection (fold protection of LC from protease) (WIL-FL [5])	further results
CC(C)CC1NC(=O)N(CC(=O)Nc2ccc(C(F)(F)F)cc2)C1=O (racemic) [Compound 8]	7.36	48.0 ± 2.4	−2.05 ± 2.9	50.8 ± 1.7	–	–
CCOC(=O)Cc1c(C)c2ccc(N(CC)CC)cc2oc1=O [Compound 2]	6.92	37.8 ± 1.4	−4.13 ± 5.2	33.8 ± 3.1	–	–
Cc1cc(=O)oc2cc(OC(C)c3ccccc3)ccc12 (stereo not drawn) [Compound 3]	–	43.3 ± 1.5	−2.52 ± 5.8	38.7 ± 3.7	–	–
CC(Oc1ccc(/C=C(\C#N)C(N)=O)cc1)c1ccccc1 (stereo not drawn) [Compound 4]	6.33	48.9 ± 2.6	−7.4 ± 4.0	40.4 ± 1.2	–	–
CC(C=NNc1ccc(S(N)(=O)=O)cc1[N+](=O)[O-])c1ccccc1 (stereo not drawn) [Compound 6]	4.92	60.8 ± 2.7	–	45.1 ± 6.6	–	–
CC1CCCCC12NC(=O)N(CC(=O)Nc1ccc(C(F)(F)F)cc1)C2=O (stereo not drawn) [Compound 7]	5.87	29.3 ± 2.5	2.51 ± 4.7	26.3 ± 1.7	–	–
CCN(CC)c1ccc2ccc(=O)oc2c1 [Compound 9]	7.9	37.9 ± 1.1	−3.45 ± 3.89	27.1 ± 1.3	–	protection of WIL-FL against PK proteolysis (WIL-FL [4]): stabilizes WIL-FL, but is less efficacious than 1
CCN(CC)c1ccc2c(C)c(Cl)c(=O)oc2c1 [Compound 10]	4	48.0 ± 3.8	−1.54 ± 2.4	55.5 ± 3.3	–	–
CCN(CC)c1ccc2c(C)c(I)c(=O)oc2c1 [Compound 11]	4.18	58.7 ± 2.0	0.94 ± 3.9	45.7 ± 7.0	–	–
CCN(CC)c1ccc2c(C)c(CN3CCOCC3)c(=O)oc2c1 [Compound 12]	11.3	37.2 ± 7.3	0.41 ± 2.5	30.2 ± 4.2	–	–
CCN(CC)c1ccc2c(CN3CCOCC3)cc(=O)oc2c1 [Compound 13]	9.15	4.21 ± 4.4	−4.10 ± 1.5	23.3 ± 8.5	–	–
CCN(CC)c1ccc2c(C)c(CC(C)=O)c(=O)oc2c1 [Compound 14]	9.04	41.9 ± 3.0	1.67 ± 4.7	34.8 ± 3.1	–	–
CC(Oc1ccc2ccc(=O)oc2c1)c1ccccc1 (stereo not drawn) [Compound 15]	9.28	34.2 ± 3.0	−4.35 ± 5.6	18.3 ± 4.9	–	–
CN(C)c1ccc(C2OCC(Cl)([N+](=O)O)CO2)cc1 (stereo not drawn) [Compound 16]	6.73	50.5 ± 5.3	−3.09 ± 3.0	29.1 ± 0.3	–	–
CC(=O)c1ccn(S(=O)(=O)c2ccccc2)c1 [Compound 17]	18.5	–	–	–	–	PK activity (%) (WIL-FL* [1]; 10 μM in pilot screen, n=1): 58.1 (10 μM in pilot screen) %
CC(=O)c1ccc(S(=O)(=O)c2ccccc2)cc1 [Compound 18]	18	–	–	–	–	PK activity (%) (WIL-FL* [1]; 10 μM in pilot screen, n=1): 46.5 (10 μM in pilot screen) %

Structure (SMILES)	EC50 (WIL-FL* [1]) [µM]	PK activity (%) (WIL-FL* [1]; [6])	Counterscreen activity (%) (WIL-FL* [2])	Thermolysin activity (%) (WIL-FL* [3])	Protection (fold protection of LC from protease) (WIL-FL [5])	further results
Cc1cc(=O)oc2cc(O)ccc12 [Compound 19]	–	–	–	–	–	PK activity (%) (WIL-FL* [1]; [7]): 2.27 (Primary screen) %
O=c1ccc2ccccc2o1 [Compound 21]	–	–	–	–	–	PK activity (%) (WIL-FL* [1]; [7]): 2.58 (Primary screen) %
CCN(CC)c1ccc2c(C)c(CCNC(=O)NCc3cccc(S(N)(=O)=O)c3)c(=O)oc2c1 [Compound 299, 3-((3-(2-(7-(diethylamino)-4-methyl-2-oxo-2H-chromen-3-yl)ethyl)ureido)methyl)benzenesulfonamide]	–	–	–	–	B (3 ≤ B < 0.6)	–
CCN(CC)c1ccc2c(CCCOC(=O)NCc3ccccc3)cc(=O)oc2c1 [Compound 300, 3-(7-(diethylamino)-2-oxo-2H-chromen-4-yl)propyl benzylcarbamate]	–	–	–	–	A (A < 0.3))	–
CCN(CC)c1ccc2c(CCCOC(=O)NCc3ccncc3)cc(=O)oc2c1 [Compound 301, 3-(7-(diethylamino)-2-oxo-2H-chromen-4-yl)propyl (pyridin-4-ylmethyl)carbamate]	–	–	–	–	A (A < 0.3))	–
CCN(CC)c1ccc2c(CCCOC(=O)NCc3cccc(C(N)=O)c3)cc(=O)oc2c1 [Compound 302, 3-(7-(diethylamino)-2-oxo-2H-chromen-4-yl)propyl (3-carbamoylbenzyl)carbamate]	–	–	–	–	A (A < 0.3))	–
CCN(CC)c1ccc2c(CCCOC(=O)NCc3cccc(S(N)(=O)=O)c3)cc(=O)oc2c1 [Compound 303, 3-(7-(diethylamino)-2-oxo-2H-chromen-4-yl)propyl (3-sulfamoylbenzyl)carbamate]	–	–	–	–	A (A < 0.3))	–
CCN(CC)c1ccc2c(CCCOC(=O)NCc3cccc(-c4c[nH]cn4)c3)cc(=O)oc2c1 [Compound 304, 3-(7-(diethylamino)-2-oxo-2H-chromen-4-yl)propyl (3-(1H-imidazol-4-yl)benzyl)carbamate]	–	–	–	–	A (A < 0.3))	–
CCN(CC)c1ccc2c(CCCOC(=O)NCc3cccc(CCC(=O)O)c3)cc(=O)oc2c1 [Compound 305, 3-(3-((((3-(7-(diethylamino)-2-oxo-2H-chromen-4-yl)propoxy)carbonyl)amino)methyl)phenyl)propanoic acid]	–	–	–	–	A (A < 0.3))	–
CCN(CC)c1ccc2c(CCCOC(=O)NCc3cccc(CCC(=O)OC)c3)cc(=O)oc2c1 [Compound 306, Methyl 3-(3-((((3-(7-(diethylamino)-2-oxo-2H-chromen-4yl)propoxy)carbonyl)amino)methyl)phenyl)propanoate]	–	–	–	–	A (A < 0.3))	–
CCN(CC)c1ccc2c(C)c(CCNC(=O)NCc3cccc(CCC(=O)O)c3)c(=O)oc2c1 [Compound 307, 3-(3-((3-(2-(7-(diethylamino)-4-methyl-2-oxo-2H-chromen-3-yl)ethyl)ureido)methyl)phenyl)propanoic acid]	–	–	–	–	B (3 ≤ B < 0.6)	–
CCN(CC)c1ccc2c(C)c(CCNC(=O)NCc3cccc(CCC(=O)OC)c3)c(=O)oc2c1 [Compound 308, Methyl 3-(3-((3-(2-(7-(diethylamino)-4-methyl-2-oxo-2H-chromen-3-yl)ethyl)ureido)methyl)phenyl)propanoate]	–	–	–	–	B (3 ≤ B < 0.6)	–
CCN(CC)c1ccc2c(C)c(CCOC(=O)NCc3cccc(CCC(=O)O)c3)c(=O)oc2c1 [Compound 309, 3-(3-((((2-(7-(diethylamino)-4-methyl-2-oxo-2H-chromen-3-yl)ethoxy)carbonyl)amino)methyl)phenyl)propanoic acid]	–	–	–	–	A (A < 0.3))	–
CCN(CC)c1ccc2c(C)c(CCOC(=O)NCc3cccc(CCC(=O)OC)c3)c(=O)oc2c1 [Compound 310, Methyl 3-(3-((((2-(7-(diethylamino)-4-methyl-2-oxo-2H-chromen-3-yl)ethoxy)carbonyl)amino)methyl)phenyl)propanoate]	–	–	–	–	A (A < 0.3))	–
CCN(CC)c1ccc2c(C)c(CCNC(=O)NCc3cccc(OCC(=O)O)c3)c(=O)oc2c1 [Compound 311, 2-(3-((3-(2-(7-(diethylamino)-4-methyl-2-oxo-2H-chromen-3-yl)ethyl)ureido)methyl)phenoxy)acetic acid]	–	–	–	–	B (3 ≤ B < 0.6)	–
CCN(CC)c1ccc2c(C)c(CCNC(=O)NCc3cccc(OCC(=O)OC)c3)c(=O)oc2c1 [Compound 312, Methyl 2-(3-((3-(2-(7-(diethylamino)-4-methyl-2-oxo-2H-chromen-3-yl)ethyl)ureido)methyl)phenoxy)acetate]	–	–	–	–	C (C ≥ 0.6)	–
